Measured values reported in patent US6905841B2, “Enzymatic substrates for detecting Pseudomonas aeruginas” (Biomerieux S.A., priority 1999, dated 2005).
Like-named read-outs stand apart in the source and are kept apart here.

How the values were obtained:
[1] = test system: β-alanine aminopeptidase; assay: APIZYM-type test strips with β-alanyl-β-naphthylamide; format: cell-based; conditions: Serratia fonticola; five strains
[2] = test system: β-alanine aminopeptidase; format: cell-based; conditions: Yersinia pseudotuberculosis; five strains
[3] = test system: β-alanine aminopeptidase; assay: APIZYM-type test strips with β-alanyl-β-naphthylamide; format: cell-based; conditions: Plesiomonas shigelloïdes; five strains
[4] = test system: β-alanine aminopeptidase; assay: as above; format: cell-based; conditions: Moraxella bovis; 4 strains
[5] = test system: β-alanine aminopeptidase; assay: as above; format: cell-based; conditions: Proteus rettgeri; five strains
[6] = test system: β-alanine aminopeptidase; assay: as above; format: cell-based; conditions: Proteus morganii; five strains
[7] = test system: β-alanine aminopeptidase; assay: as above; format: cell-based; conditions: Klebsiella rhinoscleromatis; 3 strains
[8] = test system: β-alanine aminopeptidase; assay: as above; format: cell-based; conditions: Shewanella putrefaciens; five strains
[9] = test system: β-alanine aminopeptidase; assay: as above; format: cell-based; conditions: Pseudomonas oryzihabitans; five strains
[10] = test system: β-alanine aminopeptidase; assay: as above; format: cell-based; conditions: Brevundimonas diminuta; five strains
[11] = test system: β-alanine aminopeptidase; assay: as above; format: cell-based; conditions: CDC IV C2; five strains
[12] = test system: β-alanine aminopeptidase; assay: as above; format: cell-based; conditions: Salmonella choleraesuis; five strains
[13] = test system: β-alanine aminopeptidase; assay: as above; format: cell-based; conditions: Vibrio alginolyticus; five strains
[14] = test system: β-alanine aminopeptidase; assay: as above; format: cell-based; conditions: Chryseobacterium meningosepticum; five strains
[15] = test system: β-alanine aminopeptidase; assay: as above; format: cell-based; conditions: Moraxella osloensis; 18 strains
[16] = test system: β-alanine aminopeptidase; assay: as above; format: cell-based; conditions: Actinobacillus spp.; five strains
[17] = test system: β-alanine aminopeptidase; assay: as above; format: cell-based; conditions: Salmonella typhi; five strains
[18] = test system: β-alanine aminopeptidase; assay: as above; format: cell-based; conditions: Salmonella paratyphi A; five strains
[19] = test system: β-alanine aminopeptidase; assay: as above; format: cell-based; conditions: Shigella sonnei; five strains
[20] = test system: β-alanine aminopeptidase; assay: as above; format: cell-based; conditions: Weeksella virosa; 4 strains
[21] = test system: β-alanine aminopeptidase; assay: as above; format: cell-based; conditions: Shigella spp.; 4 strains
[22] = test system: β-alanine aminopeptidase; assay: as above; format: cell-based; conditions: Salmonella gallinarum; 3 strains
[23] = test system: β-alanine aminopeptidase; assay: as above; format: cell-based; conditions: Yersinia enterocolitica; five strains
[24] = test system: β-alanine aminopeptidase; assay: as above; format: cell-based; conditions: Moraxella paraphenylpyruvica; 3 strains
[25] = test system: β-alanine aminopeptidase; assay: as above; format: cell-based; conditions: Vibrio parahaemolyticus; 4 strains
[26] = test system: β-alanine aminopeptidase; assay: as above; format: cell-based; conditions: Serratia marcescens; five strains
[27] = test system: β-alanine aminopeptidase; assay: as above; format: cell-based; conditions: Klebsiella pneumoniae, spp. pneumoniae; five strains
[28] = test system: β-alanine aminopeptidase; assay: as above; format: cell-based; conditions: Enterobacter aerogenes; five strains
[29] = test system: β-alanine aminopeptidase; assay: as above; format: cell-based; conditions: Escherichia coli; five strains
[30] = test system: β-alanine aminopeptidase; assay: as above; format: cell-based; conditions: Burkholderia cepacia; five strains
[31] = test system: β-alanine aminopeptidase; assay: as above; format: cell-based; conditions: Actinobacillus ureae; 1 strain
[32] = test system: β-alanine aminopeptidase; conditions: Enterococcus faecalis; 2 strains tested; read after 22 to 24 hours
[33] = test system: β-alanine aminopeptidase; conditions: Myroïdes spp.; 1 strain tested; read after 22 to 24 hours
[34] = test system: β-alanine aminopeptidase; conditions: Enterococcus faecium; 2 strains tested; read after 22 to 24 hours
[35] = test system: β-alanine aminopeptidase; conditions: Ralstonia pickettii; 1 strain tested; read after 22 to 24 hours
[36] = test system: β-alanine aminopeptidase; conditions: Salmonella arizonae; 1 strain tested; read after 22 to 24 hours
[37] = test system: β-alanine aminopeptidase; conditions: Burkholderia vesicularis; 1 strain tested; read after 22 to 24 hours
[38] = test system: β-alanine aminopeptidase; conditions: Streptococcus agalactiae; 1 strain tested; read after 22 to 24 hours
[39] = test system: β-alanine aminopeptidase; conditions: Acinetobacter baumannii; 2 strains tested; read after 22 to 24 hours
[40] = test system: β-alanine aminopeptidase; conditions: Proteus vulgaris; 1 strain tested; read after 22 to 24 hours

β-alanyl-β-naphthylamide
positive: β-alanine aminopeptidase activity, result [30]
negative: β-alanine aminopeptidase activity, result [1] | β-alanine aminopeptidase activity, result [2] | β-alanine aminopeptidase activity, result [3] | β-alanine aminopeptidase activity, result [4] | β-alanine aminopeptidase activity, result [5] | β-alanine aminopeptidase activity, result [6] | β-alanine aminopeptidase activity, result [7] | β-alanine aminopeptidase activity, result [8] | β-alanine aminopeptidase activity, result [9] | β-alanine aminopeptidase activity, result [10] | β-alanine aminopeptidase activity, result [11] | β-alanine aminopeptidase activity, result [12] | β-alanine aminopeptidase activity, result [13] | β-alanine aminopeptidase activity, result [14] | β-alanine aminopeptidase activity, result [15] | β-alanine aminopeptidase activity, result [16] | β-alanine aminopeptidase activity, result [17] | β-alanine aminopeptidase activity, result [18] | β-alanine aminopeptidase activity, result [19] | β-alanine aminopeptidase activity, result [20] | β-alanine aminopeptidase activity, result [21] | β-alanine aminopeptidase activity, result [22] | β-alanine aminopeptidase activity, result [23] | β-alanine aminopeptidase activity, result [24] | β-alanine aminopeptidase activity, result [25] | β-alanine aminopeptidase activity, result [26] | β-alanine aminopeptidase activity, result [27] | β-alanine aminopeptidase activity, result [28] | β-alanine aminopeptidase activity, result [29] | β-alanine aminopeptidase activity, result [31]

NCCC(=O)c1c(N)cc(Cl)c(O)c1Cl
1: Number of negative results [33] | Number of negative results [35] | Number of negative results [36] | Number of negative results [37] | Number of negative results [38] | Number of negative results [40]
2: Number of negative results [32] | Number of negative results [34] | Number of negative results [39]
0: Number positive results [32] | Number positive results [33] | Number positive results [34] | Number positive results [35] | Number positive results [36] | Number positive results [37] | Number positive results [38] | Number positive results [39] | Number positive results [40]
